# From patent US11400058B2, “Intravenous formulations of coenzyme Q10 (CoQ10) and methods of use thereof” (Berg LLC, priority 2010, dated 2022)
# Marks after values point to notes of the source that are not given here.
# Test: 4-week repeat-dose toxicology study in rats with 2-week recovery (Study 20000328)
# [1] = 125 mg/kg M, end of dosing, animals affected
# [2] = 125 mg/kg M, end of dosing, animals of 10
# [3] = 125 mg/kg M, end of recovery, animals of 5
# [4] = 250 mg/kg F, end of dosing, animals of 10
compound,measurement,setting,value
"COC1=C(OC)C(=O)C(C/C=C(\C)CC/C=C(\C)CC/C=C(\C)CC/C=C(\C)CC/C=C(\C)CC/C=C(\C)CC/C=C(\C)CC/C=C(\C)CC/C=C(\C)CCC=C(C)C)=C(C)C1=O [CoQ10, Coenzyme Q10]",Erythrocytes,"125 mg/kg M, end of dosing",7.59* 10^6/cmm
same,"Food Consumption, percent difference from controls","125 mg/kg M, end of dosing",−9.2* %
same,GGT,"125 mg/kg M, end of dosing",0.09 IU/L
same,Hematocrit,"125 mg/kg M, end of dosing",41.6* %
same,Hemoglobin,"125 mg/kg M, end of dosing",14.3 g/dL
same,Leukocytes,"125 mg/kg M, end of dosing",11.03 10^3/cmm
same,"Liver weight (absolute), percent difference from controls","125 mg/kg M, end of dosing",−7.2%
same,Lymphocytes,"125 mg/kg M, end of dosing",8.70* 10^3/cmm
same,Neutrophils,"125 mg/kg M, end of dosing",1.71 10^3/cmm
same,"Spleen weight (absolute), percent difference from controls","125 mg/kg M, end of dosing",−23.4%
same,Injection Site Mononuclear Cell Infiltration,[1],1
same,"Injection Site Mononuclear Cell Infiltration, Marked",[1],1
same,"Injection Site Mononuclear Cell Infiltration, Mild",[1],0
same,"Injection Site Mononuclear Cell Infiltration, Minimal",[1],0
same,"Injection Site Mononuclear Cell Infiltration, Moderate",[1],0
same,"Bone Marrow, Sternum Hyperplasia",[2],2
same,"Bone Marrow, Sternum Hyperplasia, Mild",[2],0
same,"Bone Marrow, Sternum Hyperplasia, Minimal",[2],2
same,Gross Pathology: Enlarged Pancreatic Lymph Nodes,[2],1
same,Gross Pathology: Pale Adrenal,[2],0
same,Gross Pathology: Pale Liver,[2],9
same,Gross Pathology: Pale Lymph Nodes,[2],4
same,Gross Pathology: Pale Pituitary,[2],0
same,Gross Pathology: Pale SQ Skin,[2],1
same,Liver Focal Necrosis,[2],0
same,"Liver Focal Necrosis, Minimal",[2],0
same,Liver Histiocytic Infiltration,[2],6
same,"Liver Histiocytic Infiltration, Mild",[2],3
same,"Liver Histiocytic Infiltration, Minimal",[2],3
same,"Liver Histiocytic Infiltration, Moderate",[2],0
same,Liver Vacuolation,[2],8
same,"Liver Vacuolation, Mild",[2],4
same,"Liver Vacuolation, Minimal",[2],4
same,"Lymph Node, Man. Histiocytic Infiltration",[2],7
same,"Lymph Node, Man. Histiocytic Infiltration, Mild",[2],4
same,"Lymph Node, Man. Histiocytic Infiltration, Minimal",[2],3
same,"Lymph Node, Man. Histiocytic Infiltration, Moderate",[2],0
same,"Lymph Node, Mes. Histiocytic Infiltration",[2],10
same,"Lymph Node, Mes. Histiocytic Infiltration, Mild",[2],6
same,"Lymph Node, Mes. Histiocytic Infiltration, Minimal",[2],4
same,"Lymph Node, Mes. Histiocytic Infiltration, Moderate",[2],0
same,"Skin, Dermis Histiocytic Infiltration",[2],1
same,"Skin, Dermis Histiocytic Infiltration, Marked",[2],1
same,"Skin, Dermis Histiocytic Infiltration, Mild",[2],0
same,"Skin, Dermis Histiocytic Infiltration, Moderate",[2],0
same,"Skin, SQ Histiocytic Infiltration",[2],0
same,"Skin, SQ Histiocytic Infiltration, Mild",[2],0
same,Spleen Histiocytic Infiltration,[2],8
same,"Spleen Histiocytic Infiltration, Marked",[2],0
same,"Spleen Histiocytic Infiltration, Mild",[2],5
same,"Spleen Histiocytic Infiltration, Moderate",[2],3
same,ALT,"125 mg/kg M, end of recovery",27 IU/L
same,APPT,"125 mg/kg M, end of recovery",15.9* seconds
same,AST,"125 mg/kg M, end of recovery",94 IU/L
same,"Body Weight, percent difference from controls","125 mg/kg M, end of recovery",−2.2%
same,"Food Consumption, percent difference from controls","125 mg/kg M, end of recovery",+1.2%
same,GGT,"125 mg/kg M, end of recovery",0.00 IU/L
same,"Liver weight (absolute), percent difference from controls","125 mg/kg M, end of recovery",−2.5%
same,"Spleen weight (absolute), percent difference from controls","125 mg/kg M, end of recovery",+5.9%
same,Adrenal Gland Vacuolation,[3],5
same,"Adrenal Gland Vacuolation, Marked",[3],0
same,"Adrenal Gland Vacuolation, Mild",[3],2
same,"Adrenal Gland Vacuolation, Minimal",[3],0
same,"Adrenal Gland Vacuolation, Moderate",[3],3
same,Gross Pathology: Enlarged Spleen,[3],1
same,Gross Pathology: Pale Iliac Lymph Node,[3],2
same,Gross Pathology: Pale Liver,[3],5
same,Gross Pathology: Pale Pancreatic Lymph Node,[3],2
same,Liver Focal Necrosis,[3],3
same,"Liver Focal Necrosis, Mild",[3],1
same,"Liver Focal Necrosis, Minimal",[3],2
same,Liver Histiocytic Infiltration,[3],5
same,"Liver Histiocytic Infiltration, Mild",[3],1
same,"Liver Histiocytic Infiltration, Minimal",[3],4
same,"Liver Histiocytic Infiltration, Moderate",[3],0
same,Liver Multifocal Necrosis,[3],0
same,"Liver Multifocal Necrosis, Mild",[3],0
same,"Liver Multifocal Necrosis, Moderate",[3],0
same,Liver Vacuolation,[3],5
same,"Liver Vacuolation, Mild",[3],4
same,"Liver Vacuolation, Minimal",[3],1
same,"Liver Vacuolation, Moderate",[3],0
same,"Lymph Node, Man. Histiocytic Infiltration",[3],5
same,"Lymph Node, Man. Histiocytic Infiltration, Mild",[3],2
same,"Lymph Node, Man. Histiocytic Infiltration, Minimal",[3],3
same,"Lymph Node, Man. Histiocytic Infiltration, Moderate",[3],0
same,"Lymph Node, Mes. Histiocytic Infiltration",[3],5
same,"Lymph Node, Mes. Histiocytic Infiltration, Mild",[3],1
same,"Lymph Node, Mes. Histiocytic Infiltration, Minimal",[3],3
same,Spleen Histiocytic Infiltration,[3],3
same,"Spleen Histiocytic Infiltration, Marked",[3],0
same,"Spleen Histiocytic Infiltration, Mild",[3],1
same,"Spleen Histiocytic Infiltration, Minimal",[3],2
same,"Spleen Histiocytic Infiltration, Moderate",[3],0
same,Died or Sacrificed Moribund,"250 mg/kg F, animals of 15",0
same,ALT,"250 mg/kg F, end of dosing",22 IU/L
same,APPT,"250 mg/kg F, end of dosing",14.5* seconds
same,AST,"250 mg/kg F, end of dosing",88 IU/L
same,"Body Weight, percent difference from controls","250 mg/kg F, end of dosing",−8.9* %
same,Eosinophils,"250 mg/kg F, end of dosing",0.10 10^3/cmm
same,Erythrocytes,"250 mg/kg F, end of dosing",6.12 10^6/cmm
same,"Food Consumption, percent difference from controls","250 mg/kg F, end of dosing",−18.3* %
same,GGT,"250 mg/kg F, end of dosing",0.25 IU/L
same,Hematocrit,"250 mg/kg F, end of dosing",39.2* %
same,Hemoglobin,"250 mg/kg F, end of dosing",13.2 g/dL
same,Leukocytes,"250 mg/kg F, end of dosing",13.15* 10^3/cmm
same,"Liver weight (absolute), percent difference from controls","250 mg/kg F, end of dosing",+14.5* %
same,Lymphocytes,"250 mg/kg F, end of dosing",10.50* 10^3/cmm
same,Neutrophils,"250 mg/kg F, end of dosing",1.97* 10^3/cmm
same,"Spleen weight (absolute), percent difference from controls","250 mg/kg F, end of dosing",+51.0* %
same,Adrenal Gland Vacuolation,[4],10
same,"Adrenal Gland Vacuolation, Mild",[4],3
same,"Adrenal Gland Vacuolation, Minimal",[4],0
same,"Adrenal Gland Vacuolation, Moderate",[4],7
same,"Bone Marrow, Sternum Hyperplasia",[4],0
same,"Bone Marrow, Sternum Hyperplasia, Mild",[4],0
same,"Bone Marrow, Sternum Hyperplasia, Minimal",[4],0
same,Gross Pathology: Enlarged Pancreatic Lymph Nodes,[4],1
same,Gross Pathology: Pale Adrenal,[4],2
same,Gross Pathology: Pale Liver,[4],10
same,Gross Pathology: Pale Lymph Nodes,[4],7
same,Gross Pathology: Pale Ovaries,[4],9
same,Gross Pathology: Pale Pituitary,[4],0
same,Gross Pathology: Pale SQ Skin,[4],4
same,Injection Site Mononuclear Cell Infiltration,[4],10
same,"Injection Site Mononuclear Cell Infiltration, Marked",[4],2
same,"Injection Site Mononuclear Cell Infiltration, Mild",[4],1
same,"Injection Site Mononuclear Cell Infiltration, Minimal",[4],0
same,"Injection Site Mononuclear Cell Infiltration, Moderate",[4],7
same,Liver Focal Necrosis,[4],0
same,"Liver Focal Necrosis, Minimal",[4],0
same,Liver Histiocytic Infiltration,[4],9
same,"Liver Histiocytic Infiltration, Mild",[4],5
same,"Liver Histiocytic Infiltration, Minimal",[4],4
same,"Liver Histiocytic Infiltration, Moderate",[4],0
same,Liver Vacuolation,[4],10
same,"Liver Vacuolation, Mild",[4],10
same,"Liver Vacuolation, Minimal",[4],0
same,"Lymph Node, Man. Histiocytic Infiltration",[4],9
same,"Lymph Node, Man. Histiocytic Infiltration, Mild",[4],1
same,"Lymph Node, Man. Histiocytic Infiltration, Minimal",[4],7
same,"Lymph Node, Man. Histiocytic Infiltration, Moderate",[4],1
same,"Lymph Node, Mes. Histiocytic Infiltration",[4],9
same,"Lymph Node, Mes. Histiocytic Infiltration, Mild",[4],4
same,"Lymph Node, Mes. Histiocytic Infiltration, Minimal",[4],5
same,"Lymph Node, Mes. Histiocytic Infiltration, Moderate",[4],0
same,Ovary Histiocytic Infiltration,[4],10
same,"Ovary Histiocytic Infiltration, Mild",[4],6
same,"Ovary Histiocytic Infiltration, Minimal",[4],0
same,"Ovary Histiocytic Infiltration, Moderate",[4],4
same,"Skin, Dermis Histiocytic Infiltration",[4],2
same,"Skin, Dermis Histiocytic Infiltration, Marked",[4],0
same,"Skin, Dermis Histiocytic Infiltration, Mild",[4],0
same,"Skin, Dermis Histiocytic Infiltration, Moderate",[4],2
same,"Skin, SQ Histiocytic Infiltration",[4],0
same,"Skin, SQ Histiocytic Infiltration, Mild",[4],0
